The text below walks through data of US20260234187A1, “ANTIMICROBIAL PEPTIDES” (MATERIAS S.R.L., priority 2020, published 2026).

One data set is described as follows: physchem. It is filed as physicochemical. How it is done: The tests were carried out in three of the most common solvents used in biological applications such as: ultrapure water; DPBS (Dulbecco's Phosphate Buffered Saline), i.e., a saline buffer containing potassium chloride (KCl), monobasic potassium phosphate (KH2PO4), sodium chloride (NaCl) and dibasic sodium phosphate (Na2HPO4-7H2O) and finally in an organic solvent such as dimethylsulfoxide (DMSO).

The format of data set [1] is physicochemical. The protocol: The structural and conformational characterization of the RiLK1 peptide was assessed by investigating its secondary structure by ^1H NMR spectroscopy in H2O and in a micellar solution of SDS at a concentration of 150 mM to mimic the condition of the bacterial cell membrane.
In fact, the representative structures of the RiLK1 peptide in water show a random orientation of both polar and hydrophobic amino acid side chains.
The helical structure appears well defined and stabilized by hydrophobic interactions of amino acid residues located on the opposite face. It is important to note that, in this arrangement, all the charged side chains are iso-oriented and well prone to interact with the negatively charged surface of the SDS micelles. Furthermore, the two tryptophan residues within the RiLK1 sequence are located at an optimal distance for their mutual stacking, thus contributing to the stabilization of the helix. It should be pointed out that the ^1H NMR spectra of the peptide IDR-1018-K6 (described in patent application WO2019012158) could not be acquired in the presence of micellar solutions of SDS since it is not soluble at the concentrations required to carry out these assays. […] Therefore, it is possible to assert that the NMR analysis in the presence of SDS has shown that the RiLK1 peptide of the present invention is capable of adopting the helix conformation, whereas the IDR-1018-K6 peptide (object of patent WO2019012158) has poor solubility and a heterogeneous system not suitable for NMR structural characterization (Table 2).

The subject of the next data set is S. aureus. It is filed as cell-based, Staphylococcus aureus. How it is done:
(§1) The evaluation of the Minimum Bactericidal Concentration (MBC), i.e., the lowest concentration of antimicrobial agent capable of 99.9% inhibition of bacterial growth on plates, was carried out as described in Bílikova et al, (2015, Peptides 68:190-196). […] It should be noted that the peptide object of the present invention is more powerful and efficient than the peptide IDR-1018-K6 (described in patent application WO2019012158) against the pathogenic bacteria L. monocytogenes and S. typhimurium, with bactericidal concentration values 4-fold and 7-fold lower, respectively, compared to those shown by IDR-1018-K6.

The test system of the next data set is L. monocytogenes (LM2). It is filed as cell-based, Listeria monocytogenes. Conditions: LM2. How it is done: as §1
A further data set deals with S. typhimurium. It is filed as cell-based, Salmonella typhimurium. How it is done:
as §1

In a further data set the test system is E. coli. It is filed as cell-based, Escherichia coli. How it is done:
as §1

Data set [2] concerns Aspergillus brasiliensis (ATCC 9341). In words: antifungal activity, plate count, MFC. Format: cell-based. Conditions: A. brasiliensis. How it is done: The antifungal activity of the RiLK1 peptide was determined against Aspergillus brasiliensis. For this purpose, a stock culture was prepared in which 10^5 CFUs of A. brasiliensis were inoculated in 10 ml of buffered peptone water. A reference strain (ATCC 9341) was used for this fungal species. The culture was incubated for 6 h at 37° C. with the RiLK1 peptide at 25 μM concentrations. At the same time, control samples were incubated without adding the peptide. 100 μl of the samples thus prepared were seeded on DG18 plates (Dichloran 18% Glycerol Agar-ISO 21527-2) and incubated at 25° C. for 7 days. All experimental conditions investigated used the plate count method to estimate the fungicidal activity of the peptide. Specifically, the numbers of colonies grown on agar plates seeded with the fungal suspensions in the absence or presence of the individual peptide dilutions were counted and compared. The standard deviations of the triplicate incubations of each plate were determined using statistical software. The evaluation of the Minimum Fungicidal Concentration (MFC), i.e., the lowest concentration of antifungal agent capable of 99.9% inhibition of fungal growth on plates, was carried out as described in Bílikova et al, (2015, Peptides 68:190-196).

For data set [3], the system named is Candida albicans (ATCC 14053). The data set can be described thus: activity against yeast, plate count, MFC. Format: cell-based. Conditions: C. albicans. The protocol:
The inhibitory activity of the RiLK1 peptide was determined against the yeast Candida albicans. A stock culture was prepared in which 10^5 CFUs of C. albicans were inoculated in 10 ml of buffered peptone water. A reference strain (ATCC 14053) was used for this species. The culture was incubated for 6 h at 37° C. with the RiLK1 peptide at 25 μM concentrations. At the same time, control samples were incubated without adding the peptide. 100 μl of the samples thus prepared were seeded on DG18 plates (Dichloran 18% Glycerol Agar-ISO 21527-2) and incubated at 25° C. for 7 days. All experimental conditions investigated used the plate count method to estimate the antimycotic activity of the peptide. Specifically, the numbers of colonies grown on agar plates seeded with the cultures in the absence or presence of the individual peptide dilutions were counted and compared. The standard deviations of the triplicate incubations of each plate were determined using statistical software. The evaluation of the Minimum Fungicidal Concentration (MFC), i.e., the lowest concentration of antifungal agent capable of 99.9% inhibition of fungal growth on plates, was carried out as described in Bílikova et al, (2015, Peptides 68:190-196).

In brackets after ≈: the same amount, converted by molar mass. Where two headings read alike, the source gives them in different places. Where a SMILES comes first, the peptide text is derived from it. Where no end group is shown, it is not given here. Some results are limits rather than exact numbers.

`CC[C@@H](C)[C@@H](NC(=O)[C@@H](CCCNC(=N)N)NC(=O)[C@H](NC(=O)[C@@H](CCCCN)NC(=O)[C@H](NC(=O)[C@H](NC(=O)[C@@H](CC(C)C)NC(=O)[C@@H](CCCNC(=N)N)NC(=O)[C@H](N)C(C)C)[C@H](C)CC)C(C)C)C(C)C)C(=O)N[C@H](Cc1c[nH]c2ccccc12)C(=O)N[C@H](CCCNC(=N)N)C(=O)N[C@H](CCCNC(=N)N)C(N)=O` [IDR-1018-K6 (D)] (HELM PEPTIDE1{[dV].[dR].[dL].[dI].[dV].[dK].[dV].[dR].[dI].[dW].[dR].[dR].[am]}$$$$V2.0; N-terminus and C-terminus assumed) registered a Solubility limit in “physchem” of 0 µg/mL. For the same compound, the solubility in the data set “physchem” (Solubility limit) stood at 10000 µg/mL (≈ 6.28 mM). Further, in the data set “physchem” (pH 7.1), the Outcome result is “NOT dissolved” and the Solubility limit amounted to 0 µg/mL.

For RLKWVRIWRR-NH2 [RiLK1(L), RLKWVRIWRR], the Outcome entry in the data set “physchem” and in “physchem” (pH 7.1) was “Dissolved” throughout. The Solubility limit in “physchem” turned out to be 10000 µg/mL. Further, the solubility in the data set “physchem” (Solubility limit) stood at 10000 µg/mL; in the data set “physchem” (pH 7.1, Solubility limit), 10000 µg/mL.

As to “VRLIVKVRIWRR-NH2 (C-terminus assumed) [IDR-1018-K6(L)]”, the Outcome result in the data set “physchem” and in the data set “physchem” (pH 7.1) was “Dissolved” throughout. Also, the Solubility limit in “physchem” is 10000 µg/mL. The solubility in “physchem” (Solubility limit) was determined as 5000 µg/mL; in the data set “physchem” (pH 7.1, Solubility limit) it was 5000 µg/mL.

Turning to `CC[C@@H](C)[C@@H](NC(=O)[C@@H](CCCNC(=N)N)NC(=O)[C@H](NC(=O)[C@@H](Cc1c[nH]c2ccccc12)NC(=O)[C@@H](CCCCN)NC(=O)[C@@H](CC(C)C)NC(=O)[C@H](N)CCCNC(=N)N)C(C)C)C(=O)N[C@H](Cc1c[nH]c2ccccc12)C(=O)N[C@H](CCCNC(=N)N)C(=O)N[C@H](CCCNC(=N)N)C(N)=O` [RiLK1(D), RLKWVRIWRR] (HELM PEPTIDE1{[dR].[dL].[dK].[dW].[dV].[dR].[dI].[dW].[dR].[dR].[am]}$$$$V2.0; N-terminus assumed), the Outcome result in the data set “physchem” and in “physchem” (pH 7.1) was “Dissolved” in each case. The same compound had a Solubility limit in the data set “physchem” of 10000 µg/mL (≈ 6.81 mM). For the same compound, the solubility in the data set “physchem” (Solubility limit) was 10000 µg/mL (≈ 6.81 mM); in the data set “physchem” (pH 7.1, Solubility limit) it was 10000 µg/mL (≈ 6.81 mM).

Regarding “VRLIVKVRIWRR-NH2 (C-terminus assumed) [IDR-1018-K6]”, the solubility result in “physchem” is “totally insoluble”; in “physchem” (Solubility limit), at most 5000 µg/mL; in data set [1] it was 1000 µM. Moreover, in data set [1] (pH 4.4), the “peptide concentration in NMR sample (solubility)” value is recorded as “insoluble”. Moreover, the minimal bactericidal concentration (MBC) in the data set with S. aureus was 15 µM; in the data set with L. monocytogenes (LM2) it was 8 µM; in the data set with S. typhimurium it was 25 µM; against E. coli, 2 µM. Moreover, the “Drop Log CFU/ml” value in data set [2] (25 μM, 6 h) is reported as 0 Log CFU/ml; in data set [3] (25 μM, 6 h) it was 1.0 Log CFU/ml. Moreover, the “post-treatment decrease in the fungal load” value in data set [2] (25 μM, 6 h) was found to be 0 Log; in data set [3] (25 μM, 6 h), 1.0 Log. Further, the “antifungal activity in words” value in data set [2] (same experimental conditions) is on record as “not active”. Moreover, the “antimycotic activity in words” value in data set [3] (same experimental conditions) is “low efficiency”.

A word on the solubility: it is the dissolved amount per volume that the medium holds. A higher solubility goes with a readily soluble substance. Broadly, the MBC is the lowest tested concentration that kills the bacteria rather than only halting them.
